We go through 29 compounds from patent publication US10696692B2, “Amido-benzyl sulfone and sulfoxide derivates” (Forma TM, LLC, priority 2012, dated 2020).

For one assay, the system named is A2780 cells. Briefly: Assay 2: In-Vitro Cell Proliferation Assay (A2780 cells, SRB readout, 72 hours).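 Also: viable cells counted via sulforhodamine B staining, absorbance at 570 nm, after 72 h exposure at 37 °C, DMSO 0.1% as control, media-only background subtracted.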 Format: cell-based. The following applies: A2780 cells, 72 hours, SRB, read-out: Cell Proliferation (IC50).
Another assay has as its target NAMPT (Homo sapiens (Human), UniProt P43490). In words: Assay 1: Biochemical Inhibition Assay (NAMPT enzymatic reaction, NMN quantified by mass spectrometry).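 Also: recombinant His-tagged human NAMPT preincubated with compound 15 min, then reacted 30 min at rt with 1 µM NAM, 100 µM PRPP, 2.5 mM ATP, NMN product read by RapidFire MS, normalized to L-Cystathionine internal standard.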 To be noted: read-out: Biochemical (IC50).

Read-outs that look alike come from different tables or passages of the source.

Sequence of NAMPT (P43490 whole entry): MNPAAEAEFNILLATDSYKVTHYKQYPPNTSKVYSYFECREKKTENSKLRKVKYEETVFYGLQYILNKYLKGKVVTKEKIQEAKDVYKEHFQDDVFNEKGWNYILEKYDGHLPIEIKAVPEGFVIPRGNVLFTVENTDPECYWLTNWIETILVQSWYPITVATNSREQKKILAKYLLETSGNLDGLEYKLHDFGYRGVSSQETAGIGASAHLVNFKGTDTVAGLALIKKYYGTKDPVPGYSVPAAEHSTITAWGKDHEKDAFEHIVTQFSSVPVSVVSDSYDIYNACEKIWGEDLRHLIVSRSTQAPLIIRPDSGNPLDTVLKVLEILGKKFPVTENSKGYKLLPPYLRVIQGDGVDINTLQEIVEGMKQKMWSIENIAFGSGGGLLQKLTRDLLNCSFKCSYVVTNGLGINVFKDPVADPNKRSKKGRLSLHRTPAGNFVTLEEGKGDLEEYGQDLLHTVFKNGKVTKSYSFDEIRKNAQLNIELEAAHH

Take `O=C(NCc1ccc(S(=O)(=O)C2CCN(S(=O)(=O)c3ccccc3)CC2)cc1)c1cnc2[nH]ncc2c1` [Example 352, N-[[4-[[1-(benzenesulfonyl)-4-piperidyl]sulfonyl]phenyl]methyl]-1H-pyrazolo[3,4-b]pyridine-5-carboxamide]: the IC50 was determined as 20.3 nM with A2780 cells (Homo sapiens, A2780, 72 h) and 18 nM at NAMPT.

Turning to `O=C(NCc1ccc(S(=O)(=O)C2CCN(CC(F)(F)F)CC2)cc1)c1cnc2nccn2c1` [Example 64, Imidazo[1,2-a]pyrimidine-6-carboxylic acid 4-[1-(2,2,2-trifluoro-ethyl)-piperidine-4-sulfonyl]-benzylamide], the IC50 with A2780 cells was determined as 8.8 nM; on NAMPT, 3.7 nM.

As for `CCN1CCC([S+]([O-])c2ccc(CNC(=O)N3Cc4ccncc4C3)cc2)CC1` (stereo not shown) [Example 385, N-[[4-[(1-ethyl-4-piperidyl)sulfinyl]phenyl]methyl]-1,3-dihydropyrrolo[3,4-c]pyridine-2-carboxamide], the IC50 was found to be 56.7 nM with A2780 cells (Homo sapiens, A2780, 72 h) and 30.2 nM on NAMPT.

Take `O=C(NCc1ccc(S(=O)(=O)C2CCN(C3COC3)CC2)cc1)c1cc2ccncc2s1` [Example 120, Thieno[2,3-c]pyridine-2-carboxylic acid 4-(1-oxetan-3-yl-piperidine-4-sulfonyl)-benzylamide]: the IC50 was found to be 1.5 nM with A2780 cells (Homo sapiens, A2780, 72 h) and 4.3 nM on NAMPT.

As to `CC(=O)N1CCC(S(=O)(=O)c2ccc(CNC(=O)c3cc4cnccc4[nH]3)cc2)CC1` [Example 113, 1H-Pyrrolo[3,2-c]pyridine-2-carboxylic acid 4-(1-acetyl-piperidine-4-sulfonyl)-benzylamide], the IC50 is 44.6 nM with A2780 cells (Homo sapiens, A2780, 72 h) and 64.2 nM on NAMPT.

Take `O=C(NCc1ccc(S(=O)(=O)N2CC3CNCC(C2)O3)cc1)c1ccc2nccn2c1` [Example 333, N-[[4-(9-oxa-3,7-diazabicyclo[3.3.1]nonan-3-ylsulfonyl)phenyl]methyl] imidazo[1,2-a]pyridine-6-carboxamide]: the IC50 was found to be 286 nM with A2780 cells (Homo sapiens, A2780, 72 h) and 320 nM at NAMPT.

As to `O=C(NCc1ccc(S(=O)(=O)N2CCC(F)(F)C2)cc1)c1cnc2[nH]ncc2c1` [Example 175, 1H-Pyrazolo[3,4-b]pyridine-5-carboxylic acid 4-(3,3-difluoro-pyrrolidine-1-sulfonyl)-benzylamide], the IC50 in the assay on A2780 cells (Homo sapiens, A2780, 72 h) came out at 127 nM; at NAMPT, 65.2 nM.

Consider `CC(C)(C)OC(=O)N1CCCC2(C1)CN(S(=O)(=O)c1ccc(CNC(=O)c3ccc4nccn4c3)cc1)C2` [Example 238, tert-butyl 2-[4-[(imidazo[1,2-a]pyridine-6-carbonylamino)methyl]phenyl] sulfonyl-2,8-diazaspiro[3.5]nonane-8-carboxylate], for which the IC50 was 1.83 nM with A2780 cells (Homo sapiens, A2780, 72 h) and 11.8 nM at NAMPT.

For `O=C(NCc1ccc(S(=O)(=O)N2CC3CC(F)(F)CC3C2)cc1)c1cnc2[nH]ncc2c1` (racemic) [Example 177, cis-1H-Pyrazolo[3,4-b]pyridine-5-carboxylic acid 4-(5,5-difluoro-hexahydro-cyclopenta[c]pyrrole-2-sulfonyl)-benzylamide], the IC50 with A2780 cells (Homo sapiens, A2780, 72 h) came out at 105 nM; on NAMPT, 20.3 nM.

For the compound `O=C(NCc1ccc(S(=O)(=O)C2CCCN(S(=O)(=O)c3ccccc3)C2)cc1)c1cnc2[nH]ncc2c1` (stereo not shown) [Example 345, N-[[4-[[1-(benzenesulfonyl)-3-piperidyl]sulfonyl]phenyl]methyl]-1H-pyrazolo[3,4-b]pyridine-5-carboxamide], the IC50 in the assay with A2780 cells (Homo sapiens, A2780, 72 h) was found to be 307 nM; on NAMPT, 118 nM.

Consider `CN1CCC([S+]([O-])c2ccc(CNC(=O)N3Cc4ccncc4C3)cc2)CC1` (stereo not shown) [Example 372, N-[[4-[(1-methyl-4-piperidyl)sulfinyl]phenyl]methyl]-1,3-dihydropyrrolo[3,4-c]pyridine-2-carboxamide], for which the IC50 in the assay with A2780 cells (Homo sapiens, A2780, 72 h) stood at 61.2 nM; on NAMPT, 57.6 nM.

Take `O=C(NCc1ccc(S(=O)(=O)N2CCC3(CCNC3=O)C2)cc1)c1ccc2nccn2c1` (stereo not shown) [Example 217, N-[[4-[(1-oxo-2,7-diazaspiro[4.4]nonan-7-yl)sulfonyl]phenyl]methyl] imidazo[1,2-a]pyridine-6-carboxamide]: the IC50 with A2780 cells (Homo sapiens, A2780, 72 h) is 10.1 nM; at NAMPT, 16 nM.

For the compound `CC(=O)N(C)C1CCN(S(=O)(=O)c2ccc(CNC(=O)c3ccc4nccn4c3)cc2)C1` (racemic) [Example 101, Imidazo[1,2-a]pyridine-6-carboxylic acid 4-[3-(acetyl-methyl-amino)-pyrrolidine-1-sulfonyl]-benzylamide], the IC50 worked out at 9.7 nM in the assay on A2780 cells (Homo sapiens, A2780, 72 h) and 20.3 nM on NAMPT.

Regarding `O=C(NCc1ccc(S(=O)(=O)C2CCN(C3CCOCC3)CC2)cc1)c1cnc2[nH]ncc2c1` [Example 206, N-[[4-[(1-tetrahydropyran-4-yl-4-piperidyl)sulfonyl]phenyl]methyl]-1H-pyrazolo[3,4-b]pyridine-5-carboxamide], the IC50 with A2780 cells (Homo sapiens, A2780, 72 h) is 21.1 nM; at NAMPT, 59.2 nM.

With `CCN1CCC([S+]([O-])c2ccc(CNC(=O)c3cnc4[nH]ncc4c3)cc2)CC1` (stereo not shown) [Example 373, N-[[4-[(1-ethyl-4-piperidyl)sulfinyl]phenyl]methyl]-1H-pyrazolo[3,4-b]pyridine-5-carboxamide], the IC50 with A2780 cells (Homo sapiens, A2780, 72 h) amounted to 15.4 nM; at NAMPT, 113 nM.

With `O=C(NCc1ccc(S(=O)(=O)N2CC(C3CCCNC3)c3ccccc32)cc1)c1ccc2nccn2c1` (stereo not shown) [Example 330, N-[[4-[3-(3-piperidyl)indolin-1-yl]sulfonylphenyl]methyl] imidazo[1,2-a]pyridine-6-carboxamide], the IC50 is 42.8 nM in the assay on A2780 cells (Homo sapiens, A2780, 72 h) and 22.2 nM at NAMPT.

`CC1(O)CCN(S(=O)(=O)c2ccc(CNC(=O)c3ccc4nccn4c3)cc2)C1` (racemic) [Example 161, Imidazo[1,2-a]pyridine-6-carboxylic acid 4-(3-hydroxy-3-methyl-pyrrolidine-1-sulfonyl)-benzylamide]: the IC50 with A2780 cells (Homo sapiens, A2780, 72 h) is 47.2 nM; at NAMPT it was 52.1 nM.

For the compound “tert-butyl 2-[4-[(imidazo[1,2- a]pyridine-6- carbonylamino)methyl]phenyl] sulfonyl-2,9- diazaspiro[4.5]decane-9- carboxylate [Example 242]”, the IC50 with A2780 cells stood at 2.99 nM; on NAMPT, 6.34 nM.

As to `O=C(NCc1ccc(S(=O)(=O)C2CCOCC2)cc1)c1cnc2[nH]ncc2c1` [Example 198, N-[(4-tetrahydropyran-4-ylsulfonylphenyl)methyl]-1H-pyrazolo[3,4-b]pyridine-5-carboxamide], the IC50 was determined as 452 nM in the assay with A2780 cells (Homo sapiens, A2780, 72 h) and 308 nM at NAMPT.

On to `O=C(NCc1ccc(S(=O)(=O)N2CCC3(CCNCC3)CC2)cc1)c1ccc2nccn2c1` [Example 324, N-[[4-(3,9-diazaspiro[5.5]undecan-3-ylsulfonyl)phenyl]methyl] imidazo[1,2-a]pyridine-6-carboxamide], for which the IC50 with A2780 cells (Homo sapiens, A2780, 72 h) is 24.8 nM; at NAMPT, 19.2 nM.

For `O=C(NCc1ccc(S(=O)(=O)N2CCOC3(CCNCC3)C2)cc1)c1ccc2nccn2c1` [Example 319, N-[[4-(1-oxa-4,9-diazaspiro[5.5]undecan-4-ylsulfonyl)phenyl]methyl] imidazo[1,2-a]pyridine-6-carboxamide], the IC50 is 102 nM in the assay with A2780 cells (Homo sapiens, A2780, 72 h) and 106 nM at NAMPT.

Consider `O=C(NCc1ccc(S(=O)(=O)N2CCN(C3COC3)CC2)cc1)c1cnc2nccn2c1` [Example 119, Imidazo[1,2-a]pyrimidine-6-carboxylic acid 4-(4-oxetan-3-yl-piperazine-1-sulfonyl)-benzylamide], for which the IC50 in the assay on A2780 cells (Homo sapiens, A2780, 72 h) came to 352 nM; at NAMPT it was 4.4 nM.

On to `C[C@@H]1CN(S(=O)(=O)c2ccc(CNC(=O)c3ccc4nccn4c3)cc2)C[C@H](C)N1` [Example 60, cis-Imidazo[1,2-a]pyridine-6-carboxylic acid 4-((3R,5S)-3,5-dimethyl-piperazine-1-sulfonyl)-benzylamide], for which the IC50 in the assay with A2780 cells (Homo sapiens, A2780, 72 h) came to 15.2 nM; at NAMPT it was 29.4 nM.

In the case of `CN1CCN(C(=O)C2CCN(S(=O)(=O)c3ccc(CNC(=O)c4ccc5nccn5c4)cc3)CC2)CC1` [Example 109, Imidazo[1,2-a]pyridine-6-carboxylic acid 4-[4-(4-methyl-piperazine-1-carbonyl)-piperidine-1-sulfonyl]-benzylamide], the IC50 in the assay on A2780 cells (Homo sapiens, A2780, 72 h) is 3.9 nM; at NAMPT, 2.7 nM.

Turning to `O=C(NCc1ccc(S(=O)(=O)N2C[C@@H]3CC(F)(F)C[C@@H]3C2)cc1)c1ccc2nccn2c1` [Example 70, cis-Imidazo[1,2-a]pyridine-6-carboxylic acid 4-((3aR,6aS)-5,5-difluoro-hexahydro-cyclopenta[c]pyrrole-2-sulfonyl)-benzylamide], the IC50 in the assay on A2780 cells (Homo sapiens, A2780, 72 h) was determined as 8 nM; at NAMPT it was 6.4 nM.

For `O=C(NCc1ccc(S(=O)(=O)[C@H]2CCOC2)cc1)c1cc2cnccc2[nH]1` [Example 221, N-[[4-[(3S)-tetrahydrofuran-3-yl]sulfonylphenyl]methyl]-1H-pyrrolo[3,2-c]pyridine-2-carboxamide], the IC50 in the assay on A2780 cells (Homo sapiens, A2780, 72 h) was determined as 347 nM; on NAMPT, 125 nM.

With `CC(C)(C)OC(=O)N1CC2OCCN(S(=O)(=O)c3ccc(CNC(=O)c4ccc5nccn5c4)cc3)C2C1` (racemic) [Example 134, cis-4-(4-{([(Imidazo[1,2-a]pyridine-6-carbonyl)-amino]-methyl}-benzenesulfonyl)-hexahydro-pyrrolo[3,4-b][1,4]oxazine-6-carboxylic acid tert-butyl ester], the figures for the IC50 in the assay on A2780 cells and at NAMPT were 49.5 nM and 166 nM, respectively.

For `CC(C)(C)OC(=O)N1CCC2(CCN(S(=O)(=O)c3ccc(CNC(=O)c4ccc5nccn5c4)cc3)CC2)C1` [Example 103, 8-(4-{[(Imidazo[1,2-a]pyridine-6-carbonyl)-amino]-methyl}-benzenesulfonyl)-2,8-diaza-spiro[4.5]decane-2-carboxylic acid tert-butyl ester], the IC50 with A2780 cells (Homo sapiens, A2780, 72 h) was 39.4 nM; at NAMPT, 29.5 nM.

`N#CCC1CCN(S(=O)(=O)c2ccc(CNC(=O)c3cc4ccncc4o3)cc2)CC1` [Example 13]: the IC50 came to 33.8 nM in the assay with A2780 cells (Homo sapiens, A2780, 72 h) and 12.6 nM at NAMPT.
